Test results reported in patent US20110009469A1, “COMPOSITIONS AND METHODS OF TREATING NEOPLASIA” (The Johns Hopkins University, priority 2007, published 2011).

Legend:
Type in all cases: cell-based
[1] = tested on: miR-143 and miR-145 expression in HPNE-Kras^G12D cells; assay: miR-143 and miR-145 expression by northern blot and qRT-PCR in HPNE-Kras^G12D cells; details: HPNE-Kras^G12D cells treated with inhibitor
Description: (§1) Vista was used to generate pairwise alignments between the genomic sequence from human (May 2004 assembly) and the indicated species. The graph is a plot of nucleotide identity for a 100-bp sliding window centered at a given position. […] Expression of RNA transcripts was normalized to β-actin. FIG. 3C is a graph showing the results of a quantitative RT-PCR analysis of miR-143 and miR-145 expression in the cell lines described above. miRNA expression was normalized to 18S RNA. Error bars represent standard deviations.
(§2) U6 served as a loading control. […] Error bars represent standard deviations.
(§3) HPNE-Kras^G12D cells were infected with the anti-RREB-1 lentivirus-shRNA construct and selected in neomycin.
(§4) Kras activity leads to activation of both the Map Kinase (MAPK) cascade (also known as the RAF/MEK/MAPK pathway) and the phosphatidylinositol-3 kinase (PI3K) pathway. In order to determine which of these downstream effector pathways is involved in the Kras-RREB1-miR-143/145 pathway, levels of miR-143 and miR-145 were examined in HPNE-Kras^G12D cells treated with specific inhibitors that target MAPK and PI3K.

[2] = tested on: miR-143/145 primary transcript in HPNE-Kras^G12D cells; assay: quantitative RT-PCR of miR-143/145 primary transcript in HPNE-Kras^G12D cells; details: HPNE-Kras^G12D cells treated with inhibitor; qRT-PCR
Description: as §1, §2, §3, §4

[3] = tested on: RREB-1 expression in HPNE-Kras^G12D cells; assay: qPCR of RREB-1 expression in HPNE-Kras^G12D cells; details: HPNE-Kras^G12D cells treated with inhibitor
Description: as §1, §2, §3, §4

O=c1cc(N2CCOCC2)oc2c(-c3ccccc3)cccc12 [LY294002]
miR-143 and miR-145 expression [1]: no effect

N#CC(=C(/N)Sc1ccccc1N)/C(C#N)=C(\N)Sc1ccccc1N [U0126, 1,4-diamino-2,3-dicyano-1,4-bis(2-aminophenylthio)butadiene]
miR-143 and miR-145 expression [1]: significant increase | level of the miR-143/145 primary transcript [2]: increased | RREB-1 expression [3]: decreased
